Here are results for 1 compound from US20060211733A1, “Methods of preventing and treating opioid bowel dysfunction” (Adolor Corporation, priority 2005, published 2006).

Structures are written as SMILES.

For this series, the system named is opioid-induced bowel dysfunction in non-malignant pain subjects. The series can be described thus: six-week, randomized, double-blind, placebo-controlled study of three alvimopan dosage regimens. In kind it is in vivo, human. How it is done: A six-week, randomize, double-blind, placebo-controlled study was conducted to evaluate three dosage regimens for [[(2S)-2-[[(3R,4R)-4-(3-hydroxyphenyl)-3,4-dimethylpiperidin-1-yl]methyl]-3-phenylpropanoyl]amino]acetic acid dihydrate (alvimopan) for the treatment of opioid-induced bowel dysfunction in non-malignant pain subjects, including an evaluation of the improvement of spontaneous bowel movement (SBM) frequency compared to placebo while maintaining an acceptable tolerability profile.
Subjects meeting the initial screening criteria for the study population, and who had been administered chronic opioid therapy for non-malignant pain, were selected.

As to `C[C@H]1CN(C[C@H](Cc2ccccc2)C(=O)NCC(=O)O)CC[C@@]1(C)c1cccc(O)c1.O.O` [alvimopan, [[(2S)-2-[[(3R,4R)-4-(3-hydroxyphenyl)-3,4-dimethylpiperidin-1-yl]methyl]-3-phenylpropanoyl]amino]acetic acid dihydrate], where the note is “0.5 mg BID”, the efficacy result is “comparable to 1 mg QD or 1 mg BID” and the safety profile result is on record as “comparable to the placebo”. Besides, the “primary and key secondary endpoints (spontaneous bowel movement frequency) compared to placebo” value (all three doses (0.5 mg BID, 1 mg QD, 1 mg BID), subjects on chronic opioid therapy) is “significantly better, both clinically and statistically, than the placebo”. In addition, the tolerability result (all treatment arms) is “well-tolerated”. Where the note is “based on changes in pain scores or opioid consumption during the study”, the analgesic antagonism result is on record as “no evidence of analgesic antagonism”. For the setting “non-treatment follow-up period”, the “rebound post active treatment” value was “no evidence of rebound”. For the same compound, under “over six-week treatment period”, the tachyphylaxis entry is on record as “no evidence of tachyphylaxis”. For the same compound, the “onset and duration of treatment effects” value (six-week treatment period) was “significant at week 1 and were sustained over the entire six-week treatment period”.
